Measurements as given in publication PMC3367934 (Molecular & Cellular Proteomics : MCP, 2012).

Key:
[1] = immune sera mixing experiment; format: in vivo, mouse; conditions: 6-week immune sera physically mixed 50:50
[2] = system: antibodies in serum from dnaX-immunized mice; format: binding, mouse

Substance | distinguishability in 50:50 mixed sera [1] | ability to adsorb the signal from immune sera [2] | dnaX-specific peptides reduced in intensity by adsorption ([2]; of the 210 dnaX-specific peptides, beads bearing dnaX protein) [peptides]
PARYANANGRDLITLGIGSC | still distinguishable from the KLH-immunized mice |  | 
Transferrin: irrelevant human protein used to adsorb the immune sera |  | Only the dnaX protein could adsorb the signal | 
dnaX protein: recombinant dnaX protein produced in E. coli |  | Only the dnaX protein could adsorb the signal | 35
